We go through 14 compounds from patent US20260297081A1, “COMPOUNDS AND METHODS OF TREATING CANCERS” (Cullgen Inc., priority 2023, published 2026).

Assay [1] concerns the target CDK4 (Homo sapiens, UniProt P11802+Q16531). Kind of assay: HiBiT detection of HiBiT-tagged CDK4 protein level in MCF7 cells, 16 hours (Table 8). Conditions: MCF7 cells stably expressing HiBiT tagged target proteins; for activity at 0.01 µM: 10 nM, read-out: % CDK4 Relative Level (10 nM); for activity at 0.1 µM: 100 nM, read-out: % CDK4 Relative Level (100 nM). It is filed as cell-based. On the set-up: expressed in transfected cells; host or cells: MCF7. The protocol:
HiBiT detection system quantitatively measures total amounts of HiBiT-tagged proteins using a luminescent based method. MCF7 cells stably expressing HiBiT tagged target proteins were treated with heterobifunctional compounds at indicated concentrations for 16 hours, then lysed with Nano-Glo HiBiT Lytic detection reagents.
(With HiBiT, luminescence reflects the tagged protein that the partner subunit can reach.)

For assay [2], the system named is MCF7 cells. Kind of assay: Anti-proliferation (viability) of MCF7 cells (Table 7, FIG. 2B). It is filed as cell-based. Conditions: Homo sapiens, MCF7, MCF7 cells, 3-6 days, 10-point serial dilution; read-out: GI IC50 in MCF-7.

The structures appear in SMILES notation.

Broadly, the IC50 is the concentration at which inhibition is half-maximal.

Chain of CDK4 (P11802 whole entry): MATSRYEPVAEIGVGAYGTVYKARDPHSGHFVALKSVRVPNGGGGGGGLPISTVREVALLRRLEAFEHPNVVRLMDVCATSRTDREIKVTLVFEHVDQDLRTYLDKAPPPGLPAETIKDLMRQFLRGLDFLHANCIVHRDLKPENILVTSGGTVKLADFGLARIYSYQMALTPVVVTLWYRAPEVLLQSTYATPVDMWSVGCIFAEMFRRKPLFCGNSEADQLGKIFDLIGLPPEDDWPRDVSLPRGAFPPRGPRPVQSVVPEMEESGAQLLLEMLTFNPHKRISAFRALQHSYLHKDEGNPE
Chain of CDK4 (P24385 whole entry partner): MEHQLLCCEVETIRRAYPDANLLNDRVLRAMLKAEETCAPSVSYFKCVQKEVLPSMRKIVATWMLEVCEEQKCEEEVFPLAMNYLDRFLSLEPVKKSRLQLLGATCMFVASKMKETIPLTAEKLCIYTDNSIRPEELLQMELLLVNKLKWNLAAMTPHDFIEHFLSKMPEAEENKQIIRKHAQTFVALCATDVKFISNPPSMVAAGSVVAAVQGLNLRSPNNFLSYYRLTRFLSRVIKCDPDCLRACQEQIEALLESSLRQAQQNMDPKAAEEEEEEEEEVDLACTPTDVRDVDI
Chain of CDK4 (Q16531 2-1140 limits assumed): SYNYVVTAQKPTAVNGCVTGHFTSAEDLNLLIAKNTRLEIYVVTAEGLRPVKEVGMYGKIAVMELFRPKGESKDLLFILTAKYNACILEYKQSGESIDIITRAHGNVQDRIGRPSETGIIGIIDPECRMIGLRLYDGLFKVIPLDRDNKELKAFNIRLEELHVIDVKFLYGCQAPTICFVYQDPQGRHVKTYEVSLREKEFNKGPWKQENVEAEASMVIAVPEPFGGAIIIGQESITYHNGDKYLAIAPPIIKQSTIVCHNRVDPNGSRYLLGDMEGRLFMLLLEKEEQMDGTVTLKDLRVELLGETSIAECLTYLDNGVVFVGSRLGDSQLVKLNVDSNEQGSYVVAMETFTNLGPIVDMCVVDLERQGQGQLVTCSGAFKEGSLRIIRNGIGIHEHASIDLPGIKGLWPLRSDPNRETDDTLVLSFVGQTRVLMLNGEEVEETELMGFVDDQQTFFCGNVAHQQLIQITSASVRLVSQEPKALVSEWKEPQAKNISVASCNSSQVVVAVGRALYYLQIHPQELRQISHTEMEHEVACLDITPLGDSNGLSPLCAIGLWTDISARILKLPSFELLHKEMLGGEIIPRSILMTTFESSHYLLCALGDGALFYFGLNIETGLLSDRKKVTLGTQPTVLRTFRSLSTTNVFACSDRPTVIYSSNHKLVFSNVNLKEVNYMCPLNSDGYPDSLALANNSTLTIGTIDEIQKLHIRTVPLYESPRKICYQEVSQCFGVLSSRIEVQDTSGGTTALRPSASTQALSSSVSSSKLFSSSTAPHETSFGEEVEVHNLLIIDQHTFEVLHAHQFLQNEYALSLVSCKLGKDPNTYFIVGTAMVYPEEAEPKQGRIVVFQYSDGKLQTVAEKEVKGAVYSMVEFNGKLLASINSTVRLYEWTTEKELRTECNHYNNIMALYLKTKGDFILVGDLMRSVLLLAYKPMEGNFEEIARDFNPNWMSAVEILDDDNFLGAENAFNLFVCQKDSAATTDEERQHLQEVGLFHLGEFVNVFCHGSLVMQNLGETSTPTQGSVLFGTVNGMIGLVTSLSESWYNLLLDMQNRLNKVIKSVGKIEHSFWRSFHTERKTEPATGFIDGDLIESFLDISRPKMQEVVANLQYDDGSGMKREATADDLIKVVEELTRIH

With `CC(=O)c1c(C)c2cnc(Nc3ccc(N4CCN(C(C)CC(=O)N5CC6(CC(Nc7nc(NC(C)C)ccc7C(=O)Nc7ccc(N(C)C)nn7)C6)C5)CC4)cn3)nc2n(C2CCCC2)c1=O` (stereo not drawn) [CPD-368, 2-((2-(3-(4-(6-((6-acetyl-8-cyclopentyl-5-methyl-7-oxo-7,8-dihydropyrido[2,3-d]pyrimidin-2-yl)amino)pyridin-3-yl)piperazin-1-yl)butanoyl)-2-azaspiro[3.3]heptan-6-yl)amino)-N-(6-(dimethylamino)pyridazin-3-yl)-6-(isopropylamino)nicotinamide], in assay [1], the activity at 0.01 µM fell in the range of 55 to 85% and the activity at 0.1 µM was in the range of 55 to 85%. The IC50 in assay [2] is under 50 nM.
For the compound `CC(=O)c1c(C)c2cnc(Nc3ccc(N4CCC5(CC4)CC5C(=O)N4CCC(Nc5nc(NC(C)C)ccc5C(=O)Nc5ccc(N(C)C)nn5)CC4)cn3)nc2n(C2CCCC2)c1=O` (stereo not drawn) [CPD-407, 2-((1-(6-(6-((6-acetyl-8-cyclopentyl-5-methyl-7-oxo-7,8-dihydropyrido[2,3-d]pyrimidin-2-yl)amino)pyridin-3-yl)-6-azaspiro[2.5]octane-1-carbonyl)piperidin-4-yl)amino)-N-(6-(dimethylamino)pyridazin-3-yl)-6-(isopropylamino)nicotinamide], in assay [1], the activity at 0.01 µM lay in the range of 55 to 85% and the activity at 0.1 µM lay in the range of 55 to 85%. The IC50 in assay [2] was under 50 nM.
As to `CC(=O)c1c(C)c2cnc(Nc3ccc(N4CCC5(CC4)CC5C(=O)NC4CC5(C4)CC(Nc4nc(NC(C)C)ccc4C(=O)Nc4ccc(N(C)C)nn4)C5)cn3)nc2n(C2CCCC2)c1=O` (stereo not drawn) [CPD-414, 6-(6-((6-acetyl-8-cyclopentyl-5-methyl-7-oxo-7,8-dihydropyrido[2,3-d]pyrimidin-2-yl)amino)pyridin-3-yl)-N-(6-((3-((6-(dimethylamino)pyridazin-3-yl)carbamoyl)-6-(isopropylamino)pyridin-2-yl)amino)spiro[3.3]heptan-2-yl)-6-azaspiro[2.5]octane-1-carboxamide], in assay [1], the activity at 0.01 µM lay within 55 to 85% and the activity at 0.1 µM was in the range of 55 to 85%. In addition, the half-inhibitory concentration (IC50) in assay [2] is under 50 nM.
For the compound `CC(=O)c1c(C)c2cnc(Nc3ccc(CN4CCN(CC(=O)N5CC6(CC(Nc7nc(NC(C)C)ccc7C(=O)Nc7ccc(N(C)C)nn7)C6)C5)CC4)cn3)nc2n(C2CCCC2)c1=O` [CPD-422, 2-((2-(2-(4-((6-((6-acetyl-8-cyclopentyl-5-methyl-7-oxo-7,8-dihydropyrido[2,3-d]pyrimidin-2-yl)amino)pyridin-3-yl)methyl)piperazin-1-yl)acetyl)-2-azaspiro[3.3]heptan-6-yl)amino)-N-(6-(dimethylamino)pyridazin-3-yl)-6-(isopropylamino)nicotinamide], in assay [1], the activity at 0.01 µM was over 85% and the activity at 0.1 µM lay in the range of 55 to 85%. Moreover, the half-inhibitory concentration (IC50) in assay [2] is under 50 nM.
Consider `CC(=O)c1c(C)c2cnc(Nc3ccc(N4CCC(N(C)CC(=O)N5CC6(CC(Nc7nc(NC(C)C)ccc7C(=O)Nc7ccc(N(C)C)nn7)C6)C5)CC4)cn3)nc2n(C2CCCC2)c1=O` [CPD-425, 2-((2-(N-(1-(6-((6-acetyl-8-cyclopentyl-5-methyl-7-oxo-7,8-dihydropyrido[2,3-d]pyrimidin-2-yl)amino)pyridin-3-yl)piperidin-4-yl)-N-methylglycyl)-2-azaspiro[3.3]heptan-6-yl)amino)-N-(6-(dimethylamino)pyridazin-3-yl)-6-(isopropylamino)nicotinamide], for which, in assay [1], the activity at 0.01 µM lay within 55 to 85% and the activity at 0.1 µM lay in the range of 55 to 85%. For the same compound, in assay [2], the IC50 was under 50 nM.
On to `CC(=O)c1c(C)c2cnc(Nc3ccc(N4CCN(CC(=O)NCC56CC(Nc7nc(NC(C)C)ccc7C(=O)Nc7ccc(N(C)C)nn7)(C5)C6)CC4)cn3)nc2n(C2CCCC2)c1=O` [CPD-429, 2-((3-((2-(4-(6-((6-acetyl-8-cyclopentyl-5-methyl-7-oxo-7,8-dihydropyrido[2,3-d]pyrimidin-2-yl)amino)pyridin-3-yl)piperazin-1-yl)acetamido)methyl)bicyclo[1.1.1]pentan-1-yl)amino)-N-(6-(dimethylamino)pyridazin-3-yl)-6-(isopropylamino)nicotinamide], for which, in assay [1], the activity at 0.01 µM lay within 55 to 85% and the activity at 0.1 µM fell in the range of 55 to 85%. Further, the IC50 in assay [2] is under 50 nM.
For `[2H]C([2H])([2H])Nc1ccc(C(=O)Nc2cc(C)n(C)n2)c(NC2CC3(C2)CN(C(=O)CN2CCC4(CCN(c5ccc(Nc6ncc7c(C)c(C(C)=O)c(=O)n(C8CCCC8)c7n6)nc5)C4)C2)C3)n1` (stereo not drawn) [CPD-447, 2-((2-(2-(7-(6-((6-acetyl-8-cyclopentyl-5-methyl-7-oxo-7,8-dihydropyrido[2,3-d]pyrimidin-2-yl)amino)pyridin-3-yl)-2,7-diazaspiro[4.4]nonan-2-yl)acetyl)-2-azaspiro[3.3]heptan-6-yl)amino)-N-(1,5-dimethyl-1H-pyrazol-3-yl)-6-((methyl-d3)amino)nicotinamide], in assay [1], the activity at 0.01 µM was 55 to 85% and the activity at 0.1 µM fell in the range of 55 to 85%. In addition, the IC50 in assay [2] was under 50 nM.
For `CC(=O)c1c(C)c2cnc(Nc3ccc(N4CCC5(CCN(CC(=O)N6CC7(CC(Nc8nc(NC(C)C)ccc8C(=O)Nc8ccc(N(C)C)nn8)C7)C6)C5)C4)cn3)nc2n(C2CCCC2)c1=O` (stereo not drawn) [CPD-448, 2-((2-(2-(7-(6-((6-acetyl-8-cyclopentyl-5-methyl-7-oxo-7,8-dihydropyrido[2,3-d]pyrimidin-2-yl)amino)pyridin-3-yl)-2,7-diazaspiro[4.4]nonan-2-yl)acetyl)-2-azaspiro[3.3]heptan-6-yl)amino)-N-(6-(dimethylamino)pyridazin-3-yl)-6-(isopropylamino)nicotinamide], in assay [1], the activity at 0.01 µM was 55 to 85% and the activity at 0.1 µM fell in the range of 55 to 85%. The half-maximal inhibitory concentration (IC50) in assay [2] is under 50 nM.
Turning to `CC(C)Nc1ccc(C(=O)Nc2ccc(N(C)C)nn2)c(NC2CC3(C2)CN(C(=O)CN2CCN(Cc4ccc(Nc5ncc6cc7n(c6n5)C5(CCCCC5)CNC7=O)nc4)CC2)C3)n1` [CPD-557, N-(6-(dimethylamino)pyridazin-3-yl)-6-(isopropylamino)-2-((2-(2-(4-((6-((6′-oxo-7′,8′-dihydro-6′H-spiro[cyclohexane-1,9′-pyrazino[1′,2′:1,5]pyrrolo[2,3-d]pyrimidin]-2′-yl)amino)pyridin-3-yl)methyl)piperazin-1-yl)acetyl)-2-azaspiro[3.3]heptan-6-yl)amino)nicotinamide], in assay [1], the activity at 0.01 µM is over 85% and the activity at 0.1 µM is over 85%. Also, in assay [2], the 50% inhibitory concentration (IC50) is over 100 nM.
In the case of `CC(C)Nc1ccc(C(=O)Nc2ccc(N(C)C)nn2)c(NC2CC3(CC(NC(=O)CN4CCN(Cc5ccc(Nc6ncc7cc8n(c7n6)C6(CCCCC6)CNC8=O)nc5)CC4)C3)C2)n1` (stereo not drawn) [CPD-558, N-(6-(dimethylamino)pyridazin-3-yl)-6-(isopropylamino)-2-((6-(2-(4-((6-((6′-oxo-7′,8′-dihydro-6′H-spiro[cyclohexane-1,9′-pyrazino[1′,2′:1,5]pyrrolo[2,3-d]pyrimidin]-2′-yl)amino)pyridin-3-yl)methyl)piperazin-1-yl)acetamido)spiro[3.3]heptan-2-yl)amino)nicotinamide], in assay [1], the activity at 0.01 µM is over 85% and the activity at 0.1 µM was over 85%. Moreover, the IC50 in assay [2] was over 100 nM.
In the case of `CC(=O)c1c(C)c2cnc(Nc3ccc(N4CCN(C5CCN(C(=O)[C@H]6CC[C@H](Nc7nc(C8CC8)ccc7C(=O)Nc7ccc(N(C)C)nn7)CC6)C5)CC4)cn3)nc2n(C2CCCC2)c1=O` (stereo partly drawn) [CPD-573, 2-((trans-4-(3-(4-(6-((6-acetyl-8-cyclopentyl-5-methyl-7-oxo-7,8-dihydropyrido[2,3-d]pyrimidin-2-yl)amino)pyridin-3-yl)piperazin-1-yl)pyrrolidine-1-carbonyl)cyclohexyl)amino)-6-cyclopropyl-N-(6-(dimethylamino)pyridazin-3-yl)nicotinamide], in assay [1], the activity at 0.01 µM was 55 to 85% and the activity at 0.1 µM lay within 55 to 85%. Further, the IC50 in assay [2] was under 50 nM.
`CNc1ccc(C(=O)Nc2ccc(N(C)C)nn2)c(NCCCCCCC(=O)NC2CCC3(CC2)CC(Nc2ncc4ccc(=O)n(C5CCCC5)c4n2)C3)n1` (stereo not drawn) [CPD-677, 2-((7-((2-((8-cyclopentyl-7-oxo-7,8-dihydropyrido[2,3-d]pyrimidin-2-yl)amino)spiro[3.5]nonan-7-yl)amino)-7-oxoheptyl)amino)-N-(6-(dimethylamino)pyridazin-3-yl)-6-(methylamino)nicotinamide]: in assay [1], the activity at 0.01 µM was over 85% and the activity at 0.1 µM is over 85%.
`CNc1ccc(C(=O)Nc2ccc(N(C)C)nn2)c(NCCCCCCCC(=O)NC2CCC3(CC2)CC(Nc2ncc4ccc(=O)n(C5CCCC5)c4n2)C3)n1` (stereo not drawn) [CPD-678, 2-((8-((2-((8-cyclopentyl-7-oxo-7,8-dihydropyrido[2,3-d]pyrimidin-2-yl)amino)spiro[3.5]nonan-7-yl)amino)-8-oxooctyl)amino)-N-(6-(dimethylamino)pyridazin-3-yl)-6-(methylamino)nicotinamide]: in assay [1], the activity at 0.01 µM is over 85% and the activity at 0.1 µM is over 85%.
Turning to `CNc1ccc(C(=O)Nc2ccc(N(C)C)nn2)c(NCCOCCC(=O)NC2CCC3(CC2)CC(Nc2ncc4ccc(=O)n(C5CCCC5)c4n2)C3)n1` (stereo not drawn) [CPD-679, 2-((2-(3-((2-((8-cyclopentyl-7-oxo-7,8-dihydropyrido[2,3-d]pyrimidin-2-yl)amino)spiro[3.5]nonan-7-yl)amino)-3-oxopropoxy)ethyl)amino)-N-(6-(dimethylamino)pyridazin-3-yl)-6-(methylamino)nicotinamide], in assay [1], the activity at 0.01 µM was over 85% and the activity at 0.1 µM is over 85%.
